Laboratory results published in ChEMBL document CHEMBL5543109, “Novel β-Hairpin Antimicrobial Peptide Containing the β-Turn Sequence of -NG- and the Tryptophan Zippers Facilitate Self-Assembly into Nanofibers, Exhibiting Excellent Antimicrobial Performance” (J Med Chem, 2024).
Values after ≈ are worked out from the molar mass of the structure shown. Active and inactive are the calls of the source. The calls are words filed in the database; no cut-off is given here.

What was measured:
Escherichia coli [1] = assay: Antibacterial activity against Escherichia coli incubated for 18 hrs by broth microdilution method; format: functional
Staphylococcus aureus [2] = assay: Antibacterial activity against methicillin resistant Staphylococcus aureus 113 incubated for 18 hrs by broth microdilution method; format: functional
Staphylococcus aureus [3] = assay: Antibacterial activity against methicillin resistant Staphylococcus aureus 75 incubated for 18 hrs by broth microdilution method; format: functional
Staphylococcus aureus [4] = assay: Antibacterial activity against Staphylococcus aureus incubated for 18 hrs by broth microdilution method; format: functional
Staphylococcus aureus [5] = assay: Antibacterial activity against Staphylococcus aureus 794 infected in BALB/c mouse skin wound infection model assessed as reduction in TNFalpha level at 1 mg/ml, ip pre-infected with bacteria for 24 hrs followed by compound addition and measured after 13 days post infection; format: functional, organism-based; settings: time 12.0 day
Staphylococcus aureus [6] = assay: Antibacterial activity against kanamycin resistant Staphylococcus aureus incubated for 18 hrs by broth microdilution method; format: functional
Staphylococcus aureus [7] = assay: Antibacterial activity against Staphylococcus aureus S125 incubated for 18 hrs by broth microdilution method; format: functional
Staphylococcus aureus [8] = assay: Antibacterial activity against Staphylococcus aureus S794 incubated for 18 hrs by broth microdilution method; format: functional
Escherichia coli [9] = assay: Antibacterial activity against rifampicin resistant Escherichia coli incubated for 18 hrs by broth microdilution method; format: functional
Staphylococcus aureus [10] = assay: Antibacterial activity against methicillin resistant Staphylococcus aureus incubated for 18 hrs by broth microdilution method; format: functional
[11] = Toxicity in BALB/c mouse infected with Staphylococcus aureus 794 assessed as inflammatory cell infiltration at 1 mg/ml, ip pre-infected with bacteria for 24 hrs followed by compound addition and measured after 13 days by H and E staining based histopathological analysis; format: organism-based; settings: in vivo, 312 h, time 13 day
Staphylococcus aureus [12] = assay: Antibacterial activity against Staphylococcus aureus 794 infected in BALB/c mouse skin wound infection model assessed as wound healing at 1 mg/ml, ip pre-infected with bacteria for 24 hrs followed by compound addition and measured on day 11; format: functional; settings: time 11.0 day
Staphylococcus aureus [13] = assay: Antibacterial activity against Staphylococcus aureus 794 infected in BALB/c mouse skin wound infection model assessed as wound healing by measuring thickened scab at 1 mg/ml, ip pre-infected with bacteria for 24 hrs followed by compound addition and measured on day 9; format: functional, organism-based; settings: time 9.0 day
[14] = Toxicity in BALB/c mouse infected with Staphylococcus aureus 794 assessed as cell necrosis at 1 mg/ml, ip pre-infected with bacteria for 24 hrs followed by compound addition and measured after 13 days by H and E staining based histopathological analysis; format: organism-based; settings: in vivo, 312 h, time 13 day
Staphylococcus aureus [15] = assay: Antibacterial activity against Staphylococcus aureus ATCC 25923 infected in BALB/c mouse skin wound infection model assessed as reduction in wound bacterial load at 1 mg/ml, ip administered at 1 hr interval for total 6 treatment and measured after 1 hr post last dose; format: functional, organism-based; settings: time 7.0 hrs
Escherichia coli [16] = assay: Antibacterial activity against kanamycin resistant Escherichia coli incubated for 18 hrs by broth microdilution method; format: functional
[17] = Toxicity in BALB/c mouse infected with Staphylococcus aureus 794 assessed as hyperkeratosis at 1 mg/ml, ip pre-infected with bacteria for 24 hrs followed by compound addition and measured after 13 days by H and E staining based histopathological analysis; format: organism-based; settings: in vivo, 312 h, time 13 day
Staphylococcus aureus [18] = assay: Antibacterial activity against rifampicin resistant Staphylococcus aureus incubated for 18 hrs by broth microdilution method; format: functional
Staphylococcus aureus [19] = assay: Antibacterial activity against Staphylococcus aureus 794 infected in BALB/c mouse skin wound infection model assessed as wound healing at 1 mg/ml, ip pre-infected with bacteria for 24 hrs followed by compound addition and measured after 13 days post infection; format: functional, organism-based; settings: time 12.0 day
Cell membrane [20] = assay: Induction of cell membrane disruption in Escherichia coli assessed as PI uptake at 4 times MIC incubated for 2 hrs by PI staining based flow cytometry analysis (reference value: 11.9%); format: cell membranes
Staphylococcus aureus [21] = assay: Antibacterial activity against Staphylococcus aureus ATCC 25923 incubated for 18 hrs by broth microdilution method; format: functional
Staphylococcus aureus [22] = assay: Induction of morphological change in Staphylococcus aureus assessed as bacterial lysis at 2 times MIC incubated for 30 mins by SEM analysis; format: functional, organism-based
Pseudomonas aeruginosa [23] = assay: Induction of morphological distortion in Pseudomonas aeruginosa assessed as bacterial collapse at 2 times MIC incubated for 30 mins by SEM analysis; format: functional, organism-based
Pseudomonas aeruginosa [24] = assay: Induction of morphological change in Pseudomonas aeruginosa assessed as bacterial collapse at 2 times MIC incubated for 30 mins by SEM analysis; format: functional, organism-based
Staphylococcus aureus [25] = assay: Induction of morphological change in Staphylococcus aureus assessed as bacterial collapse at 2 times MIC incubated for 30 mins by SEM analysis; format: functional, organism-based
Pseudomonas aeruginosa [26] = assay: Bactericidal activity against Pseudomonas aeruginosa ATCC 27853 incubated for 18 hrs by broth microdilution method; format: functional
Cell membrane [27] = assay: Induction of cell membrane disruption in Escherichia coli assessed as PI uptake at 2 to 4 times MIC incubated for 2 hrs by PI staining based confocal laser scanning microscopy; format: cell membranes
Klebsiella pneumoniae [28] = assay: Antibacterial activity against Klebsiella pneumoniae ATCC 700603 incubated for 18 hrs by broth microdilution method; format: functional
Cell membrane [29] = assay: Induction of cell membrane disruption in Escherichia coli assessed as PI uptake at 2 times MIC incubated for 2 hrs by PI staining based flow cytometry analysis (reference value: 11.9%); format: cell membranes
[30] = tested on: Staphylococcus epidermidis; assay: Antibacterial activity against Staphylococcus epidermidis ATCC 12228 incubated for 18 hrs by broth microdilution method; format: functional
Pseudomonas aeruginosa [31] = assay: Antibacterial activity against Pseudomonas aeruginosa ATCC 27853 incubated for 18 hrs by broth microdilution method; format: functional
Cell membrane [32] = assay: Induction of cell membrane disruption in Staphylococcus aureus assessed as PI uptake at 2 to 4 times MIC incubated for 2 hrs by PI staining based confocal laser scanning microscopy; format: cell membranes
Klebsiella pneumoniae [33] = assay: Bactericidal activity against Klebsiella pneumoniae ATCC 700603 incubated for 18 hrs by broth microdilution method; format: functional
Escherichia coli [34] = assay: Antibacterial activity against Escherichia coli at 2 times MIC preincubated with 256 ug/ml LPS for 1 hr followed by bacterial addition and measured after 5 hrs; format: functional, organism-based; settings: time 6.0 hrs
Escherichia coli [35] = assay: Bactericidal activity against Escherichia coli ATCC 25922 incubated for 18 hrs by broth microdilution method; format: functional
Cell membrane [36] = assay: Induction of cell membrane disruption in Staphylococcus aureus assessed as PI uptake at 4 times MIC incubated for 2 hrs by PI staining based flow cytometry analysis (reference value: 15.9%); format: cell membranes
Staphylococcus aureus [37] = assay: Induction of morphological distortion in Staphylococcus aureus assessed as bacterial collapse at 2 times MIC incubated for 30 mins by SEM analysis; format: functional, organism-based
[38] = tested on: Staphylococcus epidermidis; assay: Bactericidal activity against Staphylococcus epidermidis ATCC 12228 incubated for 18 hrs by broth microdilution method; format: functional
Bacillus subtilis [39] = assay: Antibacterial activity against Bacillus subtilis ATCC 23857 incubated for 18 hrs by broth microdilution method; format: functional
Staphylococcus aureus [40] = assay: Bactericidal activity against Staphylococcus aureus ATCC 25923 incubated for 18 hrs by broth microdilution method; format: functional
Bacillus subtilis [41] = assay: Bactericidal activity against Bacillus subtilis ATCC 23857 incubated for 18 hrs by broth microdilution method; format: functional
Escherichia coli [42] = assay: Antibacterial activity against Escherichia coli ATCC 25922 incubated for 18 hrs by broth microdilution method; format: functional
Pseudomonas aeruginosa [43] = assay: Induction of morphological change in Pseudomonas aeruginosa assessed as bacterial lysis at 2 times MIC incubated for 30 mins by SEM analysis; format: functional, organism-based
Cell membrane [44] = assay: Induction of cell membrane disruption in Staphylococcus aureus assessed as PI uptake at 2 times MIC incubated for 2 hrs by PI staining based flow cytometry analysis (reference value: 15.9%); format: cell membranes
Pseudomonas aeruginosa [45] = assay: Drug resistance against Pseudomonas aeruginosa assessed as fold increase in MIC after 40 consecutive days of passages by sequential passaging method; format: functional; settings: time 18.0 hrs

CN[C@H](CC(C)C)C(=O)N[C@H]1C(=O)N[C@@H](CC(N)=O)C(=O)N[C@H]2C(=O)N[C@H]3C(=O)N[C@H](C(=O)N[C@H](C(=O)O)c4cc(O)cc(O)c4-c4cc3ccc4O)[C@H](O)c3ccc(c(Cl)c3)Oc3cc2cc(c3O[C@@H]2O[C@H](CO)[C@@H](O)[C@H](O)[C@H]2O[C@H]2C[C@](C)(N)[C@H](O)[C@H](C)O2)Oc2ccc(cc2Cl)[C@H]1O [VANCOMYCIN]
MIC (Escherichia coli [1]): 64 µM (≈ 92.8 µg/mL) | MIC (Staphylococcus aureus [2]): 0.5 µM (≈ 0.725 µg/mL) | MIC (Staphylococcus aureus [3]): 0.5 µM (≈ 0.725 µg/mL) | MIC (Staphylococcus aureus [4]): 0.5 µM (≈ 0.725 µg/mL) | Activity (Staphylococcus aureus [5]): Active | MIC (Staphylococcus aureus [6]): 0.5 µM (≈ 0.725 µg/mL) | MIC (Staphylococcus aureus [7]): 0.5 µM (≈ 0.725 µg/mL) | MIC (Staphylococcus aureus [8]): 64 µM (≈ 92.8 µg/mL) | MIC (Escherichia coli [9]): 128 µM (≈ 186 µg/mL) | MIC (Staphylococcus aureus [10]): 0.5 µM (≈ 0.725 µg/mL) | Activity [11]: Toxic | Activity (Staphylococcus aureus [12]): inactive | Activity (Staphylococcus aureus [13]): Active | Activity [14]: Toxic | Activity (Staphylococcus aureus [15]): Active | MIC (Escherichia coli [16]): 64 µM (≈ 92.8 µg/mL) | Activity [17]: Toxic | MIC (Staphylococcus aureus [18]): 128 µM (≈ 186 µg/mL) | Activity (Staphylococcus aureus [19]): Active

POLYMYXIN B
MIC (Escherichia coli [1]): 2 µM | MIC (Staphylococcus aureus [2]): 8 µM | Activity (Cell membrane [20]): 45.4% | MIC (Staphylococcus aureus [21]): 8 µM | MIC (Staphylococcus aureus [3]): 16 µM | MIC (Staphylococcus aureus [4]): 8 µM | Activity (Staphylococcus aureus [22]): Active | Activity (Pseudomonas aeruginosa [23]): Active | Activity (Pseudomonas aeruginosa [24]): Active | Activity (Staphylococcus aureus [25]): Active | MIC (Staphylococcus aureus [6]): 8 µM | MIC (Staphylococcus aureus [7]): 8 µM | MBC (Pseudomonas aeruginosa [26]): 1 µM | MIC (Staphylococcus aureus [8]): 8 µM | Activity (Cell membrane [27]): inactive | MIC (Klebsiella pneumoniae [28]): 2 µM | MIC (Escherichia coli [9]): 2 µM | MIC (Staphylococcus aureus [10]): 16 µM | Activity (Cell membrane [29]): 42.6% | MIC [30]: 8 µM | MIC (Pseudomonas aeruginosa [31]): 1 µM | Activity (Cell membrane [32]): inactive | MBC (Klebsiella pneumoniae [33]): 2 µM | Activity (Escherichia coli [34]): inactive | MBC (Escherichia coli [35]): 2 µM | Activity (Cell membrane [36]): 38% | Activity (Staphylococcus aureus [37]): Active | MBC [38]: 16 µM | MIC (Bacillus subtilis [39]): 4 µM | MBC (Staphylococcus aureus [40]): 32 µM | MBC (Bacillus subtilis [41]): 8 µM | MIC (Escherichia coli [16]): 16 µM | MIC (Escherichia coli [42]): 2 µM | MIC (Staphylococcus aureus [18]): 2 µM | Activity (Pseudomonas aeruginosa [43]): Active | Activity (Cell membrane [44]): 47.5% | fold change (FC) (Pseudomonas aeruginosa [45]): 8
